Assay results as given in BindingDB's records for patent US12441689 (Epivario, 2025).
pIC50: −log10 of the molar value.

Target: Acetyl-coenzyme A synthetase, cytoplasmic (Homo sapiens, UniProt Q9NR19)
Assay: ACSS2 Cell-Free Activity Assay
Description: At the end of the reaction, Biomol Green was added for 30 minutes at RT and the activity was measured by reading the absorbance at 620 nm.

Sequence of Acetyl-coenzyme A synthetase, cytoplasmic (Q9NR19 whole entry): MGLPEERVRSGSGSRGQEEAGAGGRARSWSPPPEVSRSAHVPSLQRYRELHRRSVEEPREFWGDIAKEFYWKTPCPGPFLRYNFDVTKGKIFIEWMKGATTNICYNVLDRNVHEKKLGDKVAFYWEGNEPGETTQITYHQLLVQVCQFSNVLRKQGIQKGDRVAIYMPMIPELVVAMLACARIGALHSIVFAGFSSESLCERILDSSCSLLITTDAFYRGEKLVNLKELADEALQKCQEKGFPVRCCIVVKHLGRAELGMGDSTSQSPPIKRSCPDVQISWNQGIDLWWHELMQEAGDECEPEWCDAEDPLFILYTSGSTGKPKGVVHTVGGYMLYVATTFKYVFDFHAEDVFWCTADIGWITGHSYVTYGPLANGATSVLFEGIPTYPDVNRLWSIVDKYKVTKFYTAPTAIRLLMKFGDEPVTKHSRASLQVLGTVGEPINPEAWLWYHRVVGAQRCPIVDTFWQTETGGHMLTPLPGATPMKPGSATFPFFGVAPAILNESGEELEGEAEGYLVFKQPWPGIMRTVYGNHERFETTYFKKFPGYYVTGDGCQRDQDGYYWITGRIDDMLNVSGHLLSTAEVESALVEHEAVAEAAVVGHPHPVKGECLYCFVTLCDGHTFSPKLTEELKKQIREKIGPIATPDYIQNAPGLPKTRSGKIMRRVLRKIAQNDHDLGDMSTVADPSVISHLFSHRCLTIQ

pIC50: < 7.00
SMILES: CCC(F)(F)c1cccc(NC(=O)c2nc(-c3ccc4cc[nH]c4c3)oc2C)c1 [US12441689, Compound 106]
